“Also recorded” adds a separate entry of the source. Where two headings read alike, the source gives them in different places.
Columns and labels:
FLJ35914-derived protein = target: T1, FLJ35914-derived protein (Homo sapiens, UniProt Q9HB65, DEL362-362); test: SEC/MS interaction analysis, FLJ35914-derived protein (ELL3); assay type: binding; settings: TSKgel super SW2000 micro-LC column (1.0 mm ID×30 mm); presence vs absence of protein; data not shown
T1 construct: His-tag (N); made in house; host or cells: Escherichia coli BL21star(DE3)pLysS
T1 sequence (Q9HB65 with tags, fused parts or gaps DEL362-362): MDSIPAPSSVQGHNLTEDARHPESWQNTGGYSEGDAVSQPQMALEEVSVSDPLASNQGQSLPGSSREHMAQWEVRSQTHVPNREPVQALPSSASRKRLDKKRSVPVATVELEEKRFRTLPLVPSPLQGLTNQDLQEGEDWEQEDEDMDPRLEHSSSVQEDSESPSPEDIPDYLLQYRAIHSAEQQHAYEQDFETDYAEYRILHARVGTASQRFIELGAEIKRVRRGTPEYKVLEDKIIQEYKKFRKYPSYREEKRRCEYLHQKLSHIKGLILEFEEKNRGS
Description: (§1) The specific procedures are shown below.

FLJ36526-derived protein = target: T2, FLJ36526-derived protein (Homo sapiens, UniProt Q9UNZ2, D290N/L361F); test: SEC/MS interaction analysis, FLJ36526-derived protein (NSFL1 (p97) cofactor (p47)); assay type: binding; settings: TSKgel super SW2000 micro-LC column (1.0 mm ID×30 mm); presence vs absence of protein; data not shown
T2 construct: His-tag (N); made in house; host or cells: Escherichia coli BL21star(DE3)pLysS
T2 sequence (Q9UNZ2 1-370 D290N/L361F): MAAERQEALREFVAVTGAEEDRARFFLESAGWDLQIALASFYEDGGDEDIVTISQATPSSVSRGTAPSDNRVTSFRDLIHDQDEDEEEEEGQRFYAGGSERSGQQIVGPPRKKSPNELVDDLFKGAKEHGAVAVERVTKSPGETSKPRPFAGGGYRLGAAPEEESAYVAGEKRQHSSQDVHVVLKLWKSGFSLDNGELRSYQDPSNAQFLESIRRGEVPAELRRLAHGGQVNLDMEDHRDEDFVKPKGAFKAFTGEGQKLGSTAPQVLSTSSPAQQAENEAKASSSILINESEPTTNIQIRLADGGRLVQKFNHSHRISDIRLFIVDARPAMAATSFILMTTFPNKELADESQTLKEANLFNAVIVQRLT
Description: as §1

FLJ39553-derived protein = target: T3, FLJ39553-derived protein (Homo sapiens, UniProt Q6P6B1, N326S); test: SEC/MS interaction analysis, FLJ39553-derived protein (hypothetical protein FLJ39553); assay type: binding; settings: TSKgel super SW2000 micro-LC column (1.0 mm ID×30 mm); presence vs absence of protein; data not shown
T3 construct: His-tag (N); made in house; host or cells: Escherichia coli BL21star(DE3)pLysS
T3 sequence (Q6P6B1 1-374 N326S): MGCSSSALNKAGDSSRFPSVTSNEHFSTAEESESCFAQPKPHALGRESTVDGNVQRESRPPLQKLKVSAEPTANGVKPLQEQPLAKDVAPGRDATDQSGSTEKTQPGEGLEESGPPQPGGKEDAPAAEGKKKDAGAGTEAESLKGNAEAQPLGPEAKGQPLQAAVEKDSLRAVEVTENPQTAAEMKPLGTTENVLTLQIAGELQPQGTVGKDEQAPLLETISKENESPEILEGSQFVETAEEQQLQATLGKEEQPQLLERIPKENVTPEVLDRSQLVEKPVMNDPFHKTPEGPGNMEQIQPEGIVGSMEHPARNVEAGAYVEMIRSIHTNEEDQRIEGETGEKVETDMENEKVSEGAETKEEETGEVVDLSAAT
Description: (§2) To analyze the interactions between commonly used drugs and proteins expressed from human full-length cDNA clones while keeping both the proteins and the compounds in non-modified, non-immobilized state, size exclusion chromatography (SEC) and mass analysis were used in combination. The specific procedures are shown below.
(§3) The compound-protein mixture prepared in step 1 was subjected to chromatography using an SEC column, the compound and the protein were separated by SEC, and the compound that interacted with the bound compound or protein contained in the protein fraction was analyzed using a mass analyzer.
(§4) Protein concentrations were measured using BCA Protein Assay (PIERCE), in consideration of the purity calculated by SDS-PAGE.
Mass analysis was performed using LCQ DECA XP (Thermoelectron) or Q-TOF micro (Micromass), equipped with an ESI probe. […]
In the 384-well spin column method, Unifilter 100 (Whatman), packed with 10 μL (dry volume) of Bio-Gel P6 (BIO-RAD) and swollen with milliQ water, was used as the SEC column. […] 2-μL of mass analysis samples were injected using an autosampler at 2-minute intervals; the mass spectral intensity of the compound was measured to retrieve the spectral intensity of the pharmaceutical compound contained in the SEC spin column filtrate (protein fraction eluted from SEC).

[1] = tested on: FLJXXXXX-derived proteins; test: SEC/MS spin column interaction analysis of FLJXXXXX-derived proteins and various compounds (Tables 30-1 to 30-4); assay type: binding, human
FLJ38531-derived protein [2] = target: T4, FLJ38531-derived protein (Homo sapiens, UniProt Q9BVM4); test: SEC/MS interaction analysis, FLJ38531-derived protein (hypothetical protein BC004360); assay type: binding
T4 construct: His-tag (N); made in house; host or cells: Escherichia coli BL21star(DE3)pLysS
T4 sequence (Q9BVM4 1-153): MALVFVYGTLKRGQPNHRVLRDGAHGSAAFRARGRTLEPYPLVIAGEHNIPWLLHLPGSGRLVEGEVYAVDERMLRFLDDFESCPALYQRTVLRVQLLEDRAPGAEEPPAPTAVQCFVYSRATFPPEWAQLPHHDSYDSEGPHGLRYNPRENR
Description: as §2, §3, §4
Mass analysis was performed using LCQ DECA XP (Thermoelectron) or Q-TOF micro (Micromass), equipped with an ESI probe. The LC pump used was Agilent 1100 (Yokogawa Analytical Systems), and the autosampler used was HTC-PAL (CTC Analytics) equipped with a cooling stacker. The SEC column used was a micro-LC column or a 384-well spin column. […]
In the 384-well spin column method, Unifilter 100 (Whatman), packed with 10 μL (dry volume) of Bio-Gel P6 (BIO-RAD) and swollen with milliQ water, was used as the SEC column. […] The SEC spin column was mounted on an acetonitrile-aliquoted 384-well U-bottom plate and centrifuged; the SEC spin column filtrate, which is a protein fraction, was recovered in 50% acetonitrile. The protein precipitate produced by the acetonitrile was removed via centrifugation and filtration for deproteinization; the resulting filtrate was concentrated by centrifugal concentration and re-dissolved in 10 μL of 50% methanol to obtain a mass analysis sample. The mobile phase supplied to the mass analyzer was 0.1% formic acid/50% methanol solution in the positive ion mode, and 0.1% ammonia/50% methanol solution in the negative ion mode; these mobile phases were used at a flow rate of 40 μL/min. 2-μL of mass analysis samples were injected using an autosampler at 2-minute intervals; the mass spectral intensity of the compound was measured to retrieve the spectral intensity of the pharmaceutical compound contained in the SEC spin column filtrate (protein fraction eluted from SEC).

FLJ38531-derived protein [3] = target: T4, FLJ38531-derived protein; test: Biacore dissociation constant (KD) measurement, FLJ38531-derived protein; assay type: binding; settings: FLJ38531-derived protein (SEQ ID NO 13)
Description: This washing operation was repeated as required.

Row | Compound | interaction judged from mass chromatogram of the compound (elution from SEC micro-LC column) (FLJ35914-derived protein) | interaction judged from mass chromatogram of the compound (elution from SEC micro-LC column) (FLJ36526-derived protein) | interaction judged from mass chromatogram of the compound (elution from SEC micro-LC column) (FLJ39553-derived protein) | FLJ No of the derived protein with which the compound was judged to exhibit a concentration-dependent interaction [1] | spectrum intensity of the compound in the SEC spin column filtrate (FLJ38531-derived protein [2]; compound 12.5 μM, protein 0 μM) | spectrum intensity of the compound in the SEC spin column filtrate (FLJ38531-derived protein [2]; compound 12.5 μM, protein 5 μM) | spectrum intensity of the compound in the SEC spin column filtrate (FLJ38531-derived protein [2]; compound 12.5 μM, protein 10 μM) | spectrum intensity of the compound in the SEC spin column filtrate (FLJ38531-derived protein [2]; compound 12.5 μM, protein 25 μM) | spectrum intensity of the compound in the SEC spin column filtrate (FLJ38531-derived protein [2]; compound 25 μM, protein 0 μM) | spectrum intensity of the compound in the SEC spin column filtrate (FLJ38531-derived protein [2]; compound 25 μM, protein 5 μM) | spectrum intensity of the compound in the SEC spin column filtrate (FLJ38531-derived protein [2]; compound 25 μM, protein 10 μM) | spectrum intensity of the compound in the SEC spin column filtrate (FLJ38531-derived protein [2]; compound 25 μM, protein 25 μM) | spectrum intensity of the compound in the SEC spin column filtrate (FLJ38531-derived protein [2]; compound 62.5 μM, protein 0 μM) | spectrum intensity of the compound in the SEC spin column filtrate (FLJ38531-derived protein [2]; compound 62.5 μM, protein 5 μM) | spectrum intensity of the compound in the SEC spin column filtrate (FLJ38531-derived protein [2]; compound 62.5 μM, protein 10 μM) | spectrum intensity of the compound in the SEC spin column filtrate (FLJ38531-derived protein [2]; compound 62.5 μM, protein 25 μM) | interaction judged from spectrum intensity of the compound in the SEC spin column filtrate (protein fraction eluted from SEC) (FLJ38531-derived protein [2]; spin column method, doses of both compound and protein varied) | FLJ No of the derived protein with which the compound was judged to exhibit a concentration-dependent interaction ([1]; SEC spin column filtrate, spectral intensity increased with doses of compound and protein) | Kd (FLJ38531-derived protein [3]) [µM]
1 | C/C1=C2N=C(/C=C3N=C(/C(C)=C4\[N-][C@@](C)([C@@H]5N=C1[C@](C)(CCC(=O)NC[C@@H](C)OP(=O)([O-])O[C@H]1[C@@H](O)[C@@H](n6cnc7cc(C)c(C)cc76)O[C@@H]1CO)[C@H]5CC(N)=O)[C@@](C)(CC(N)=O)[C@@H]4CCC(N)=O)[C@@](C)(CC(N)=O)[C@@H]\3CCC(N)=O)C(C)(C)[C@@H]/2CCC(N)=O.[Co+3].[OH-] [hydroxocobalamin] | there was an interaction | there was an interaction | there was an interaction | FLJ35914; also recorded: FLJ36526; also recorded: FLJ39553 |  |  |  |  |  |  |  |  |  |  |  |  |  |  | 
2 | O=C(O)c1cc(/N=N/c2ccc(S(=O)(=O)Nc3ccccn3)cc2)ccc1O [sulfasalazine] |  |  |  |  | 59203 | 261679 | 686531 | 2048630 | 53384 | 401351 | 946518 | 2600573 | 179387 | 688076 | 1418687 | 3155516 | concentration-dependent interaction | FLJ38531 | 8.9

— patent US20090143285A1, “TARGET PROTEIN AND TARGET GENE FOR DRUG DISCOVERY AND SCREENING METHOD” (REVERSE PROTEOMICS RESEARCH INSTITUTE CO., LTD., priority 2005, published 2009)
